The results in this text go back to patent EP0878472A1, “Reactive radiation- or thermally- initiated cationically-curable epoxide monomers and compositions made from those monomers” (National Starch and Chemical Investment Holding Corporation, priority 1997, dated 1998).

Common to all, as to format: physicochemical
A short description of series [1]: Photo-DSC analysis of various styrene oxides formulated with photoinitiator and diol (Example 6).
Experimental: A sample in the range of 1.5 to 3.0 mg for each composition was exposed to UV radiation and the rate of cure followed by a DPA-7 Perkin-Elmer Photo-Differential Scanning Calorimeter (P-DSC). Each sample was equilibrated to constant temperature (25 °C) on the Calorimeter for one minute and then exposed to irradiation for a total of four minutes using a 100 Watt Mercury short arc lamp. […] In the Tables, Tmax is the time it took to reach the peak maximum exotherm in seconds, and ΔH is the exotherm of the reaction in kJoules per mole of epoxy, measured as the area over the cure from the four minute baseline back to the onset of exotherm.
Photo-DSC of various styrene oxides was conducted by formulating the epoxides with a photoinitiator and a diol.
Series [2] can be described thus: Storage stability of the epoxide at room temperature. On the procedure: The epoxidation may be performed on the starting olefinic compound by any suitable method known in the art, but is preferably conducted through a potassium monopersulfate/acetone oxidation of the olefinic portion of the corresponding styrene. The styrene compound is suspended in a mixture of acetone and water, and buffered with sodium bicarbonate, which serves to prevent decomposition of the resultant oxides. This suspension is then treated with an excess of the oxidant, provided as an aqueous solution of the monopersulfate compound (2KHSO5.KHSO4.K2SO4,) (Oxone®, a product of DuPont). The recovered solution is partitioned with ethyl acetate, toluene, methylene chloride, or other suitable solvent. Workup consists of washing the organic layer with water followed by drying with a non-acidic drying agent (e.g., anhydrous […]). Filtering this mixture, followed by removal of organic solvent in vacuo, affords the desired epoxide in high yield without further purification. […]
A suspension of 1 equivalent of 1,3-diisopropenyl benzene (5mL, 0.925g/mL, 29.2mmol) and 6 equivalents of sodium bicarbonate (15.9g, 190mmol) in a 2 : 1 mixture (volume : volume) of acetone : water (total 450mL) was treated with an aqueous solution containing 2 equivalents of potassium persulfate (Oxone®) (36.5g, 59.3mmol). […] The pH was monitored during this time and remained neutral. […]

Series [3] can be described thus: Photo-DSC (P-DSC) UV cure of epoxide/diol adhesive compositions (Example 3). On the procedure:
These compositions were compared to control formulations containing a cycloaliphatic epoxide obtained from Union Carbide, as product ERL-4221, which has the structure: [drawing 5]
A sample in the range of 1.5 to 3.0 mg for each composition was exposed to UV radiation and the rate of cure followed by a DPA-7 Perkin-Elmer Photo-Differential Scanning Calorimeter (P-DSC). Each sample was equilibrated to constant temperature (25 °C) on the Calorimeter for one minute and then exposed to irradiation for a total of four minutes using a 100 Watt Mercury short arc lamp. […] The diol used in the compositions, the molar ratio of epoxy to diol, and the DSC results are set out in Table 1 for the inventive styrene epoxy, and in Table 2 for the cycloaliphatic epoxy. In the Tables, Tmax is the time it took to reach the peak maximum exotherm in seconds, and ΔH is the exotherm of the reaction in kJoules per mole of epoxy, measured as the area over the cure from the four minute baseline back to the onset of exotherm.
The time the reaction takes to reach Tmax is a direct indication of the speed of the reaction; thus, the shorter the time (i.e. the sharper the peak), the faster the cure reaction for the epoxy, which is a desirable property for these adhesive compositions. In the following tables, the peak are designated either sharp or broad; for purposes herein, if more than half the exotherm occurred in the first 30 seconds, the peak was defined as sharp, and conversely, if less than half the exotherm occurred in the first 30 seconds, the peak was defined as broad.
The ΔH values are a direct indication of the degree of epoxy ring opening, with the more negative numbers reflecting the higher degree of conversion of the epoxy.

[4] abbreviates: Stepanol PS-4002, Epoxy:Diol 1:1.
The mark [5] stands for this setting: Stepanol PS-4002, Epoxy:Diol 3:1.

`COCC1OC1c1ccccc1` (stereo not drawn) [cinnamyl methyl ether epoxy, cinnamyl methyl ether epoxide]: the ΔH is -57.8 kJ/Mole EPOXIDE in series [1] (MP-diol, Epoxy:Diol 1:1); -63.6 kJ/Mole EPOXIDE in series [1] (MP-diol, Epoxy:Diol 3:1); -98,8 kJ/Mole EPOXIDE in series [1] (Tone polyol, Epoxy:Diol 1:1); -82,4 kJ/Mole EPOXIDE in series [1] (Tone polyol, Epoxy:Diol 3:1); -43.9 kJ/Mole EPOXIDE in series [1] (no diol).
For `COc1cc(C2OC2C)ccc1OC(C)=O` (stereo not drawn) [isoeugenol acetate epoxy, isoeugenol acetate epoxide] the same measures were -70,1 kJ/Mole EPOXIDE, -67.6 kJ/Mole EPOXIDE, -75.0 kJ/Mole EPOXIDE, -65.0 kJ/Mole EPOXIDE and -15.7 kJ/Mole EPOXIDE.
For divinylbenzene dioxide [Example 2], the “advancement of the epoxide” value in series [2] (after one year at room temperature) is on record as “no advancement”.
For `O=C(OCC1CCC2OC2C1)C1CCC2OC2C1` (stereo not drawn) [ERL-4221], the Tmax worked out at 21.20 s in series [3] (MP-diol, Epoxy:Diol 1:1); 6.39 s in series [3] (MP-diol, Epoxy:Diol 3:1); 6.81 s in series [3] (Rucoflex 107, Epoxy:Diol 1:1); 2.10 s in series [3] (Rucoflex 107, Epoxy:Diol 3:1); 17.10 s in series [3] (setting [4]); 5.34 s in series [3] (setting [5]). Besides, the Tmax in series [3] (SynFac 8031, Epoxy:Diol 1:1) stood at 13.47 s; in series [3] (SynFac 8031, Epoxy:Diol 3:1) it was 13.17 s; in series [3] (Tone 0201, Epoxy:Diol 1:1), 9.21 s; in series [3] (Tone 0201, Epoxy:Diol 1:3) it was 42.66 s; in series [3] (Tone 0201, Epoxy:Diol 3:1), 6.00 s; in series [3] (no diol, 1% UVI-6974, 25 °C), 4.62 s. Moreover, the ΔH is -78.4 kJ/mole epoxide in series [3] (MP-diol, Epoxy:Diol 1:1); -49.0 kJ/mole epoxide in series [3] (MP-diol, Epoxy:Diol 3:1); -68.9 kJ/mole epoxide in series [3] (Rucoflex 107, Epoxy:Diol 1:1); -42.9 kJ/mole epoxide in series [3] (Rucoflex 107, Epoxy:Diol 3:1); -79.4 kJ/mole epoxide in series [3] (setting [4]); -14.3 kJ/mole epoxide in series [3] (setting [5]). The ΔH is -67.8 kJ/mole epoxide in series [3] (SynFac 8031, Epoxy:Diol 1:1); -39.7 kJ/mole epoxide in series [3] (SynFac 8031, Epoxy:Diol 3:1); -62.0 kJ/mole epoxide in series [3] (Tone 0201, Epoxy:Diol 1:1); -44.0 kJ/mole epoxide in series [3] (Tone 0201, Epoxy:Diol 1:3); -30.3 kJ/mole epoxide in series [3] (Tone 0201, Epoxy:Diol 3:1); -10.0 kJ/mole epoxide in series [3] (no diol, 1% UVI-6974, 25 °C). Besides, in series [3] (range over all diols and ratios of Tables 1 and 2), the extents of cure is on record as -79.4 to -10.0 kJ.
For `CC1OC1c1ccccc1` (stereo not drawn) [beta-methyl styrene epoxy, beta-methyl styrene mono-epoxide], the ΔH in series [1] (MP-diol, Epoxy:Diol 1:1) was -102.6 kJ/Mole EPOXIDE; in series [1] (MP-diol, Epoxy:Diol 3:1), -75.7 kJ/Mole EPOXIDE; in series [1] (Tone polyol, Epoxy:Diol 1:1) it was -80.5 kJ/Mole EPOXIDE; in series [1] (Tone polyol, Epoxy:Diol 3:1), -54.5 kJ/Mole EPOXIDE; in series [1] (no diol) it was -85.4 kJ/Mole EPOXIDE.
With “1,3-diisopropenylbenzene dioxide [Example 1]”, the “advancement of the epoxide” value in series [2] (after 13 days at room temperature) was “no advancement”. Besides, the ΔH in series [1] (Tone polyol, Epoxy:Diol 1:1) is recorded as -72.8 kJ/Mole EPOXIDE; in series [1] (no diol), -57.8 kJ/Mole EPOXIDE; in series [3] (MP-diol, Epoxy:Diol 1:1), -77.4 kJ/mole epoxide; in series [3] (MP-diol, Epoxy:Diol 3:1), -58.2 kJ/mole epoxide; in series [3] (Rucoflex 107, Epoxy:Diol 1:1), -84.1 kJ/mole epoxide; in series [3] (Rucoflex 107, Epoxy:Diol 3:1), -79.1 kJ/mole epoxide. Besides, the ΔH in series [3] (setting [4]) is -76.0 kJ/mole epoxide; in series [3] (setting [5]), -62.6 kJ/mole epoxide; in series [3] (SynFac 8031, Epoxy:Diol 1:1) it was -71.8 kJ/mole epoxide; in series [3] (SynFac 8031, Epoxy:Diol 3:1) it was -65.5 kJ/mole epoxide; in series [3] (Tone 0201, Epoxy:Diol 1:1), -73.4 kJ/mole epoxide; in series [3] (Tone 0201, Epoxy:Diol 1:3), -75.9 kJ/mole epoxide. The ΔH was -56.4 kJ/mole epoxide in series [3] (Tone 0201, Epoxy:Diol 3:1) and -57.8 kJ/mole epoxide in series [3] (no diol, 1% UVI-6974, 25 °C). In addition, the Tmax in series [3] (MP-diol, Epoxy:Diol 1:1) stood at 4.35 s; in series [3] (MP-diol, Epoxy:Diol 3:1), 2.94 s; in series [3] (Rucoflex 107, Epoxy:Diol 1:1), 4.32 s; in series [3] (Rucoflex 107, Epoxy:Diol 3:1), 4.20 s; in series [3] (setting [4]), 6.12 s; in series [3] (setting [5]), 4.83 s. The Tmax is 4.74 s in series [3] (SynFac 8031, Epoxy:Diol 1:1); 3.57 s in series [3] (SynFac 8031, Epoxy:Diol 3:1); 3.57 s in series [3] (Tone 0201, Epoxy:Diol 1:1); 4.59 s in series [3] (Tone 0201, Epoxy:Diol 1:3); 3.96 s in series [3] (Tone 0201, Epoxy:Diol 3:1); 3.84 s in series [3] (no diol, 1% UVI-6974, 25 °C).
For `CC(=O)OCC1OC1c1ccccc1` (stereo not drawn) [cinnamyl acetate epoxy, cinnamyl acetate epoxide], the ΔH in series [1] (MP-diol, Epoxy:Diol 1:1) is given as -27.5 kJ/Mole EPOXIDE; in series [1] (MP-diol, Epoxy:Diol 3:1), -16.1 kJ/Mole EPOXIDE; in series [1] (Tone polyol, Epoxy:Diol 1:1) it was -55.6 kJ/Mole EPOXIDE; in series [1] (Tone polyol, Epoxy:Diol 3:1) it was -30.8 kJ/Mole EPOXIDE; in series [1] (no diol) it was 0 kJ/Mole EPOXIDE.
As for `CC1(c2ccccc2)CO1` (stereo not drawn) [alpha methyl styrene epoxy], the ΔH in series [1] (MP-diol, Epoxy:Diol 1:1) is listed as -80.9 kJ/Mole EPOXIDE; in series [1] (MP-diol, Epoxy:Diol 3:1) it was -56.4 kJ/Mole EPOXIDE; in series [1] (Tone polyol, Epoxy:Diol 1:1), -76.5 kJ/Mole EPOXIDE; in series [1] (Tone polyol, Epoxy:Diol 3:1), -66.7 kJ/Mole EPOXIDE; in series [1] (no diol), -53.3 kJ/Mole EPOXIDE.
